Data: patent US9403798B2, “Triazinone compound and T-type calcium channel inhibitor” (NISSAN CHEMICAL INDUSTRIES, LTD., priority 2012, dated 2016)
pIC50: −log10 of the molar value.

Target: T1, Human T-type calcium channel (Cav 3.2) (Homo sapiens, UniProt O95180)
T1 construct: Edward Perez-Reyes, University of Virginia, USA; host or cells: HEK293
Experiment: Calcium Influx Inhibition Assay
Format: cell-based
Conditions: Human T-type calcium channel (Cav 3.2) expressing HEK293 cells, FLIPR Calcium 4 fluorescence
Experimental: 1. Calcium Influx Inhibition Assay
Human T-type calcium channel (Cav 3.2) expressing HEK293 cells were obtained from Prof. Edward Perez-Reyes, University of Virginia, USA. The calcium-sensitive fluorescent dye used was FLIPR Calcium 4 Assay Kit (Molecular Devices). To a black 96-well plate with a clear bottom coated with type I collagen, the human T-type calcium channel (Cav 3.2) expressing HEK293 cells were seeded and cultured overnight, and the culture medium was removed. A solution of the calcium-sensitive fluorescent dye was added, and the plate was incubated at 37° C. in an atmosphere of 5% carbon dioxide for 30 minutes. To the plate, a diluted solution of a compound was added, and the whole was further incubated at 37° C. in an atmosphere of 5% carbon dioxide for 30 minutes. While fluorescence was continuously analyzed from the bottom with a FlexStation 3 (Molecular Devices), a calcium solution was added. […] From the rise in the fluorescence from the base line, the inhibition percentage was calculated. The logarithms of compound concentrations were plotted with respect to the inhibition activities to give an IC50 value.

T1 sequence (O95180 whole entry): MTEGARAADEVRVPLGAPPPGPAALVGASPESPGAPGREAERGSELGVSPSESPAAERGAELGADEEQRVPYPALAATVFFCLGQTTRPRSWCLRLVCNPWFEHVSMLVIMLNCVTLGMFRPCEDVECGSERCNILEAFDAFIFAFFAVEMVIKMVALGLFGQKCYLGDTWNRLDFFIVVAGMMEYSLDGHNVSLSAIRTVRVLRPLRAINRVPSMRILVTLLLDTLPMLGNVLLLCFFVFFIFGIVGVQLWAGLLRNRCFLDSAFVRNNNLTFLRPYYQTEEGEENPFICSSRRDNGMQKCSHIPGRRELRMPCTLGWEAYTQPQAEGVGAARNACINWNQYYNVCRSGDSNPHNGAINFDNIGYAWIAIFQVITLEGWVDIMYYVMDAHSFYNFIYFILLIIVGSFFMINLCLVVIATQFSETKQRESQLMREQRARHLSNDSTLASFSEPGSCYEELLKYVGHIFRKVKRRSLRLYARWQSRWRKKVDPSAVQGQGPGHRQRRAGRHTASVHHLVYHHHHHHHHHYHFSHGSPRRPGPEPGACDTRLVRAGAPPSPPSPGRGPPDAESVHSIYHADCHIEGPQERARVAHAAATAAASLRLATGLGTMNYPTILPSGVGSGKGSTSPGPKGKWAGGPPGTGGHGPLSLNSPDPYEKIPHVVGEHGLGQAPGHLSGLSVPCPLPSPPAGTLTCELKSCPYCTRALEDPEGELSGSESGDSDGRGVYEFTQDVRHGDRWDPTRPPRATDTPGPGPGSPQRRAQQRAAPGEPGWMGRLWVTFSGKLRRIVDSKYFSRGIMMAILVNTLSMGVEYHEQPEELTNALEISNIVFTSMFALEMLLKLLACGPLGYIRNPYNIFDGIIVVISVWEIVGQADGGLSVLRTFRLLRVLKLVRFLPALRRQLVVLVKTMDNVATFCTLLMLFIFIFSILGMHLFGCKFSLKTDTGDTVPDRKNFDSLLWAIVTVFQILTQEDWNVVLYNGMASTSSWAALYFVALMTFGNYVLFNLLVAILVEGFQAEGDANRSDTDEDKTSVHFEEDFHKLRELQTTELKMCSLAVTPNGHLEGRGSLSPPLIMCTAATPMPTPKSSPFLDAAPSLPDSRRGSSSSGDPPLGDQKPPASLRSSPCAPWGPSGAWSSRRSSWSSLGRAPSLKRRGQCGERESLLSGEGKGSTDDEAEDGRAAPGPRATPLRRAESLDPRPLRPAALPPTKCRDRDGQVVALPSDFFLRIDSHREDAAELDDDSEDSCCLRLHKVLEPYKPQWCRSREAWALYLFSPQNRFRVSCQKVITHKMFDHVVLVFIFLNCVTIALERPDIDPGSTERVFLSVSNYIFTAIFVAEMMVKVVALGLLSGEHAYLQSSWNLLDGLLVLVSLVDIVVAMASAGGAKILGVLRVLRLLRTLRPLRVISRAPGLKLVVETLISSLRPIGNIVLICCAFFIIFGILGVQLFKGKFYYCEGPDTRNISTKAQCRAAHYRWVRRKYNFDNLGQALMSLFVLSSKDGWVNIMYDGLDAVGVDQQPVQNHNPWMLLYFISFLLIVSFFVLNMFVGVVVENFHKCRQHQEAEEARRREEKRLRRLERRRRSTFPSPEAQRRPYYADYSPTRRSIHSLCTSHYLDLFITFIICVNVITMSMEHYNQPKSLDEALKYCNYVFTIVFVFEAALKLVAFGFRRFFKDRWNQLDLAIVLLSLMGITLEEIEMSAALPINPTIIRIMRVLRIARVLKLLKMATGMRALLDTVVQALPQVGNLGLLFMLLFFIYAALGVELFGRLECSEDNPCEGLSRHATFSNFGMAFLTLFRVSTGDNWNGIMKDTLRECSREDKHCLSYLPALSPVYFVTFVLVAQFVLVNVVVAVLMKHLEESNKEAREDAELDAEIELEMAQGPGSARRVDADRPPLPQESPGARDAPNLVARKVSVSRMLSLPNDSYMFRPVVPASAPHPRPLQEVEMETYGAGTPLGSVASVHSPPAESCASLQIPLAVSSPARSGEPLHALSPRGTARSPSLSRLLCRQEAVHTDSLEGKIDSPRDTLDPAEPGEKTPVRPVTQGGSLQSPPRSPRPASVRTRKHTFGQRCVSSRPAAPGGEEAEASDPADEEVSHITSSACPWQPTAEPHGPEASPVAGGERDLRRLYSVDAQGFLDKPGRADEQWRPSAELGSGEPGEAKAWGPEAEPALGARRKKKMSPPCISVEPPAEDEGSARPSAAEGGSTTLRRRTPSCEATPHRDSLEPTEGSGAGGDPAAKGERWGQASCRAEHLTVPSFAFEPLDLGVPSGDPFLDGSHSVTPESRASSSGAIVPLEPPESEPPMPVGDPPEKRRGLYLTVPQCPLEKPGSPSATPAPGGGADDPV

| pIC50 | Compound |
| --- | --- |
| 6.21 | CN(C)Cc1nc(N2CCN(c3ccc(F)cc3)CC2)nc(=O)n1Cc1ccc(C(F)(F)F)s1 [compound 462] |
| 6.55 | O=c1nc(NC2CCC(O)(c3ccc(F)cc3)C2O)ncn1Cc1ccc(Cl)cc1 (stereo not shown) [compound 465] |
| 7.17 | O=c1nc(N2CC=C(c3ccc(F)cc3)CC2)ncn1Cc1ccc(OCC(F)(F)F)cc1 [compound 468] |
| 7.41 | COC1CN(c2ncn(Cc3ccc(C(F)(F)F)s3)c(=O)n2)CC=C1c1ccc(F)cc1 (stereo not shown) [compound 475] |
| 7.21 | CC(=O)OC1CN(c2ncn(Cc3ccc(C(F)(F)F)s3)c(=O)n2)CC=C1c1ccc(F)cc1 (stereo not shown) [compound 476] |
| 7.18 | O=c1nc(N2CC=C(c3ccc(F)cc3)CC2)ncn1Cc1ccc(C2CC2)s1 [compound 479] |
| 6.33 | CN(C)C1CN(c2ncn(Cc3ccc(C(F)(F)F)s3)c(=O)n2)CC=C1c1ccc(F)cc1 (stereo not shown) [compound 481] |
| 6.62 | O=c1nc(N2C=CC(c3ccc(F)cc3)=CC2)ncn1Cc1ccc(C(F)(F)F)s1 [compound 484] |
| 6.39 | Cc1nc(N2CCC(c3ccc(F)cc3)C(CO)(CO)C2)nc(=O)n1Cc1ccc(C(F)(F)F)s1 (stereo not shown) [compound 485] |
| 6.39 | Cc1nc(N2CC=C(c3ccc(F)cc3)C3(COCOC3)C2)nc(=O)n1Cc1ccc(C(F)(F)F)s1 [compound 486] |
| 6.30 | Cc1nc(N2CCN(CC(=O)C34CC5CC(CC(C5)C3)C4)CC2)nc(=O)n1Cc1ccc(C(F)(F)F)s1 [compound 487] |
| 6.29 | Cc1nc(N2CCC(n3cc(Br)cn3)CC2)nc(=O)n1Cc1ccc(C(F)(F)F)s1 [compound 489] |
| 8.43 | Cc1cc(C2=CCN(c3nc(C)n(Cc4cnc(C(F)(F)F)s4)c(=O)n3)C[C@@H]2O)cs1 [compound 493] |
